The values that follow come from US5534536A, “Fused phenol derivatives” (Ono Pharmaceuticals Co. Ltd., priority 1993, dated 1996).

Where a name gives a salt, the structure may show the parent alone.

In assay [1] the test system is TXB2 production from human whole blood. The assay can be described thus: Effect on TXB2 production from human whole blood. In kind it is cell-based. The following applies: Ca ionophore A23187 stimulated, plasma TXB2 by EIA. The protocol:
(§1) iii) Effect on leukotriene B4 (LTB4) and TXB2 production from human whole blood […] The incubation was carried out for 5 min and terminated by centrifugation (12,000 rpm for 1-2 min). Resultant plasma was stocked at -70° C. until determination of the levels of LTB4 and TXB2. Plasma levels of LTB4 and TXB2 were determined by commercially available EIA kits (Cayman Chemical Company) following partial purification. The effect of compound tested was expressed as percentage inhibition against the amounts of LTB4 and TXB2 generated in vehicle (50% ethanol solution)-treated group.

Assay [2] concerns leukotriene B4 (LTB4) production from human whole blood. The assay can be described thus: Effect on leukotriene B4 (LTB4) production from human whole blood. The following applies: Ca ionophore A23187 stimulated, plasma LTB4 by EIA. It counts as cell-based. As for the experimental part:
as §1

Assay [3] deals with T1, human thromboxane A2 synthetase (Homo sapiens, UniProt P24557).
T1 construct: Washed platelet was prepared from citrate-treated [1/9 (v/v)] human peripheral blood; endogenous in cells; host or cells: washed platelets from human peripheral blood
T1 sequence (P24557 1-533): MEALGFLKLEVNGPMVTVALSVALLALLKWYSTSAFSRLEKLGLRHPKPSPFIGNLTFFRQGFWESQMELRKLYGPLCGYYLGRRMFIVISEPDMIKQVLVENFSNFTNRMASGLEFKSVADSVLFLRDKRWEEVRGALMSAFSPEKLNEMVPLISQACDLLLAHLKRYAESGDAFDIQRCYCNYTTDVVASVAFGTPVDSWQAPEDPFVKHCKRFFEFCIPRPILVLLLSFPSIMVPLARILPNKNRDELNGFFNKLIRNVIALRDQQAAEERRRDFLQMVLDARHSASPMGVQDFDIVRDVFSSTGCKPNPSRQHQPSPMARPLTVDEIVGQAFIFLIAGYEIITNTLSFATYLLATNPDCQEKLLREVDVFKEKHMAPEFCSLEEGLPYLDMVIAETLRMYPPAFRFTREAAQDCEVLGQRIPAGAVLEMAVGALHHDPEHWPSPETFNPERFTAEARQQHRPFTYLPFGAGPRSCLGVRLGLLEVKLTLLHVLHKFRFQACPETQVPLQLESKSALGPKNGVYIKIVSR
The assay can be described thus: Effect on human thromboxane A2 synthetase activity (washed platelets). The following applies: conversion of 14C-arachidonic acid into TXB2, 37° C., 2 min. In kind it is cell-based. The protocol: ii) Effect on human thromboxane A2 synthetase activity
Washed platelet was prepared from citrate-treated [1/9 (v/v)] human peripheral blood and suspended in Ca^++ -free Krebs-Henseleit solution (pH 7.4) at a concentration of 10.8×10^7 cells/mi. The assay mixture contained 185 μl of cell suspension, 5 μl of test compound and 10 μl of 100 μM ^14 C-arachidonic acid. Before the reaction was started by the addition of ^14 C-arachidonic acid, the other components were equilibrated for 2 min at 37 ° C. The incubation was carried out at 37° C. for 2 min and terminated by the addition of 300 μl of a mixture of diethyl ether/methanol/1M citric acid (30/4/1). The contents were mixed and then centrifuged for 2 min at 1700 G at 4° C. The products in the resultant organic layer were chromatographed on silica gel thin-layer using a solvent system of a mixture of ethyl acetate/isooctane/acetic acid/H2 O (110/50/20/100) and then autoradiographed on X-ray film. The arachidonic acid metabolites and residual substrate were quantified by chromatoscanner. TXA2 synthetase activity was expressed as the conversion rate of total radioactivity into thromboxane B2 (TXB2), a stable metabolite of TXA2. The effects of compounds tested were expressed as percentage inhibition against the conversion rate of total radioactivity into TXB2 in vehicle (50% ethanol solution)-treated group.

A further assay concerns the target T2, human 5-lipoxygenase (Homo sapiens, UniProt P09917).
T2 construct: cytosol fraction of polymorphonuclear leukocytes prepared from human peripheral blood; endogenous in cells; host or cells: polymorphonuclear leukocytes from human peripheral blood (cytosol fraction)
T2 sequence (P09917 1-674): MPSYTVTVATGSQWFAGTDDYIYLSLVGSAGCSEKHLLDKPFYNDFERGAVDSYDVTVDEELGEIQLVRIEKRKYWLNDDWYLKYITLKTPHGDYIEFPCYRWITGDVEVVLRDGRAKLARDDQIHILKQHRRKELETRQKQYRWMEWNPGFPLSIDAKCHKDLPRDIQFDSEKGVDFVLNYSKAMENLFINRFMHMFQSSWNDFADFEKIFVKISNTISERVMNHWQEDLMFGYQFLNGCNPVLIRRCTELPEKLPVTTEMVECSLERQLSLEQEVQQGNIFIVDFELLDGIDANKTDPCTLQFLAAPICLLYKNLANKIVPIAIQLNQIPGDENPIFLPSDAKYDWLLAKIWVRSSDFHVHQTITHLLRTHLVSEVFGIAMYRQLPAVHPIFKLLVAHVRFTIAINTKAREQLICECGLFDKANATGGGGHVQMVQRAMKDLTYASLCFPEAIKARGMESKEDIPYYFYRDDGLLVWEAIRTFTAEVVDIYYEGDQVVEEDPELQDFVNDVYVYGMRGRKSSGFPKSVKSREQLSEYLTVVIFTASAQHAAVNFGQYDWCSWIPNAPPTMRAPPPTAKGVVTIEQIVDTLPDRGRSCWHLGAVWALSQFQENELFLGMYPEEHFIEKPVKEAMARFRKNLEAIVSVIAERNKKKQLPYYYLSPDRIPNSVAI
The assay can be described thus: Effect on human 5-lipoxygenase activity (cytosol fraction of polymorphonuclear leukocytes). In kind it is biochemical. As to conditions: human PMN leukocyte cytosol fraction; 14C-arachidonic acid; 30° C., 1 min, pH 7.4. The protocol:
i) Effect on human 5-lipoxygenase activity
The assay mixture consisted of 85 μl of potassium/phosphate buffer (pH 7.4) containing 1.18 mM of calcium ion, 5 μl of cytosol fraction of polymorphonuclear leukocytes prepared from human peripheral blood and 5 μl of test compound. The reaction was initiated by the addition of 5 μl of 1 mM ^14 C-arachidonic acid after 5 min equilibration period. The incubation was carried out at 30° C. for 1 min and terminated by the addition of 300 μl of a ice-cold mixture of diethyl ether/methanol/1M citric acid (30/4/1). The mixture was mixed vigorously and centrifuged at 1700 G for 2 min at 4° C. The resultant organic layer was treated with sodium borohydride, kept cold for more than 10 min and then evaporated to dryness under gentle stream of nitrogen. After 200 μl of a mixture of diethyl ether/methanol (30/4) was added to the test tube, the contents were extracted by the addition of 100 μl of 1M citric acid followed by centrifugation (1700 G for 2 min at 4° C.). The products in the upper layer were chromatographed on silica gel thin-layer with a solvent system of diethyl ether/petroleum ether/acetic acid (85/15/0.01) and autoradiographed on X-ray film. The arachidonic acid metabolites and residual substrate were quantified by chromatoscanner. The 5-lipoxygenase activity was calculated by subtracting the conversion rate of total radioactivity into 15-hydroxy eicosatetraenoic acid from total radioactivity. The effect of compounds tested were expressed as percentage inhibition against 5-lipoxygenase activity in the vehicle (50% ethanol solution)-treated group.

Assay [4] has as its system lipid peroxides (TBARS) in rat liver homogenate. The assay can be described thus: Antioxidant action (lipid peroxides as TBARS in rat liver homogenate). In kind it is biochemical, Sprague-Dawley rat. The following applies: FeCl2-initiated, 1 hr at 37° C. As for the experimental part: Male Sprague-Dawley rat fasted overnight was anesthetized with diethyl ether, and liver was perfused, isolated and homogenized with 1.15% KCl (10% homogenate). The assay mixture contained 200 μl of liver homogenate, 5 μl of test compound and 10 μl of 4.4 mM FeCl2. The reaction was initiated by the addition of FeCl2, and the incubation was carried out for 1 hr at 37° C. The amounts of lipid peroxides produced during this incubation period were determined as thiobarbituric acid reactive substances (TBARS) according to the method described by OHKAWA et. al. (Analytical Biochemistry, 95, 351-358, 1979). The effects of compounds tested were expressed as percentage inhibition against the amounts of TBARS produced in vehicle (50% ethanol solution)-treated group.

As to `Cc1c(O)c(CCCSc2ccccc2)c2c(c1CCn1ccnc1)OC(C)(C)C2` [2(v)], the inhibition at 10 µM was found to be 89% in assay [1] and 61% in assay [2].
Turning to `Cc1c(O)c(CC(C)C)c2c(c1CCn1ccnc1)OC1(CCCC1)C2` [2(x)], the inhibition at 10 µM in assay [1] amounted to 82%; in assay [2] it was 70%.
`CC1(C)CCc2c(Cn3ccnc3)c(O)c3ccccc3c2O1` [4(e)]: the figures for the half-maximal inhibitory concentration (IC50) (in assay [3]; against human 5-lipoxygenase; in assay [4]) were 8.6 µM, 0.69 µM and 2.6 µM, respectively.
As to `Cc1c(O)c(C(C)C)c2c(c1CCn1ccnc1)OC(C)(C)C2` [Example 2, 5-Hydroxy-2,2,6-trimethyl-4-isopropyl-7(2-(1-imidazolyl)ethyl)-2,3-dihydrobenzofuran hydrochloride], the inhibition at 10 µM in assay [1] was 92%; in assay [2] it was 74%.
Take `COCOc1c(C)c(CCCOc2cccnc2)c2c(c1C)CCC(C)(C)O2` [Example 10]: the IC50 in assay [3] worked out at 1.4 µM; against human 5-lipoxygenase, 0.48 µM; in assay [4], 4 µM.
With `Cc1c(O)c(C)c2c(c1CCCOc1cccnc1)OC(C)(C)CC2` [Example 11], the values for the IC50 (in assay [3]; at human 5-lipoxygenase; in assay [4]) were 0.55 µM, 1.1 µM and 3.7 µM, respectively.
As for `Cc1c(O)c(CCCn2ccnc2)cc2c1CC(C)(C)O2` [Example 13], the figures for the IC50 (in assay [3]; at human 5-lipoxygenase) were 1 µM and 0.46 µM, respectively.
Turning to `COC(C)(C)Cc1c(O)c(C)c(CCn2ccnc2)c2c1CC(C)(C)O2` [Example 17], the inhibition at 10 µM was 36% in assay [1] and 22% in assay [2].
